Source: patent publication US4508727A, “Antihypertensive 2-oxo-imidazolidine derivatives” (Tanabe Seiyaku Co., Ltd., priority 1982, dated 1985)

How the values were obtained:
[1] = target: T1, angiotensin-converting enzyme (ACE) isolated from pig's renal cortex (Sus scrofa, UniProt F1RRW5); experiment: ACE-inhibitory activity in vitro; format: biochemical; details: substrate hippuryl-histidyl-leucine, 37° C., 20 minutes
T1 construct: isolated from pig's renal cortex; from tissue; host or cells: pig renal cortex
T1 sequence (F1RRW5 34-1309): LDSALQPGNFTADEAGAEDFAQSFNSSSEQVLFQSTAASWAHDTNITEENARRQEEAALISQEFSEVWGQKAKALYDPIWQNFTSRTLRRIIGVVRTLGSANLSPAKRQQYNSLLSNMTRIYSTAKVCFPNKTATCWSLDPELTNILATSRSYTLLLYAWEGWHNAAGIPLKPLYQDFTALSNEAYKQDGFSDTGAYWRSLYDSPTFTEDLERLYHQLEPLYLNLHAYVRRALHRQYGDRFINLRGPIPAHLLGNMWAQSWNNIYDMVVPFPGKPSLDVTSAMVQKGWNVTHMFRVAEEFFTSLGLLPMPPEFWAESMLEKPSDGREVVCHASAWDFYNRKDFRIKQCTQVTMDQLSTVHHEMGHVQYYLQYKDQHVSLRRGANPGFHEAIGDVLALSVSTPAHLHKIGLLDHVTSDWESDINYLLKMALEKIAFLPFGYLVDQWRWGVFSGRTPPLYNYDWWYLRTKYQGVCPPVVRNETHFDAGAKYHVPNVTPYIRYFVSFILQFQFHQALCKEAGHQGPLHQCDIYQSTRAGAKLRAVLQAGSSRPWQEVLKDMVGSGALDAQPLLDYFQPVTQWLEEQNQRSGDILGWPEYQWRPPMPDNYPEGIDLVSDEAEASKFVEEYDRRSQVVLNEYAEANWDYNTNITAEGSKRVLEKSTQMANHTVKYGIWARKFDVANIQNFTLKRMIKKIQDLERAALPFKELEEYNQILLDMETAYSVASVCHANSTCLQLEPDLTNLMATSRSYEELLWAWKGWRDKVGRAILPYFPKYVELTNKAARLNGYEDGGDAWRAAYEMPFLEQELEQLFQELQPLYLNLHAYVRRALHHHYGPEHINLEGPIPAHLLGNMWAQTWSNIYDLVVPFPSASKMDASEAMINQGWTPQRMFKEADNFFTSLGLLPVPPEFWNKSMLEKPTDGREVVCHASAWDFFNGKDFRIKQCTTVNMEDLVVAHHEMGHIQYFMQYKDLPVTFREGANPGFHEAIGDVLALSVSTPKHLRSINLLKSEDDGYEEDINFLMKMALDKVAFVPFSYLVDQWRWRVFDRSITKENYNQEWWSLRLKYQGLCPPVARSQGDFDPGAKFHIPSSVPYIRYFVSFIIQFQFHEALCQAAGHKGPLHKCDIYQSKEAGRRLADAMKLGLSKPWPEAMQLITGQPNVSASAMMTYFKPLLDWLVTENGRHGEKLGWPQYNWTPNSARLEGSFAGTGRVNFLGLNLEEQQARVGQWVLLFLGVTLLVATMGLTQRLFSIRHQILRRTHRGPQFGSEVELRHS
Method: 50 μl of a solution containing 0.01 mole/liter of hippuryl-histidyl-leucine (substrate) and 0-100 μl of a test compound solution were added to 300 μl of a 0.2M tris-hydrochloric acid buffer solution containing 0.2 mole/liter of sodium chloride. The total volume of said mixture was adjusted to 450 μl with water. Then, 50 μl of angiotensin-converting enzyme (ACE) isolated from pig's renal cortex were added to the mixture, and the mixture was allowed to stand at 37° C. for 20 minutes. The amount of histidyl-leucine produced from the substrate by the action of ACE was assayed microbiologically by the use of Leuconostoc mesenteroides P-60, and the ACE-inhibitory activity of the test compound was estimated therefrom.

[2] = system: spontaneously hypertensive rats (SHR); experiment: Hypotensive activity in SHR; format: in vivo, rat; details: 3 mg/kg orally; for hypotensive activity, Blood pressure (b): measured after administration of the test compound / hypotensive activity, Blood pressure (a): measured before administration of the test compound / Duration of action: SHR; for hypotensive activity, Blood pressure (b): measured after administration of the test compound / hypotensive activity, Blood pressure (a): measured before administration of the test compound: systolic
Method: A test compound suspended in an aqueous carboxymethyl-cellulose solution was administered orally (dose: 3 mg/kg) to spontaneously hypertensive rats (SHR) fasted overnight. The systolic blood pressure of the rats was measured by the tail plethysmographic technique (The Journal of Laboratory and Clinical Medicine 78 (1971), page 957). The hypotensive activity of the test compound was estimated from the decreased level of blood pressure.

ACE [3] = experiment: ACE-inhibitory activity in vivo, pressor response to angiotensin I, oral, rats; set-up: species or system rat; details: for ACE-inhibitory activity (%): normotensive rats, 1 mg/kg orally, angiotensin I 300 ng/kg i.v.
Method: Normotensive rats were anesthetized with urethane (1.2 g/kg, s.c.), and angiotensin I (300 ng/kg) was injected into the jugular vein of the rats. The pressor response to angiotensin I was measured with a pressure transducer connected to the carotid artery. Then, a test compound was administered orally thereto at a dose of 1 mg/kg, and angiotensin I (300 ng/kg) was further injected intravenously at intervals. The ACE-inhibitoryactivity of the test compound was estimated from the pressor responses to angiotensin I which were obtained before and after oral administration of the test compound.

ACE [4] = experiment: ACE-inhibitory activity in vivo, pressor response to angiotensin I, intravenous, rats; set-up: species or system rat; details: normotensive rats, 10 γ/kg intravenously, angiotensin I 300 ng/kg
Method: (§1) Normotensive rats and normotensive cats were anesthetized with urethane (1.2 g/kg, s.c.), and angiotensin I (rat: 300 ng/kg, cat: 600 ng/kg) was injected into the jugular vein of the rats and the femoral vein of the cats. The pressor response to angiotensin I was measured with a pressure transducer connected to the carotid artery. Then, a test compound was injected intravenously thereto at a dose of 10 γ/kg, and angiotensin I (rat: 300 ng/kg, cat: 600 ng/kg) was further injected intravenously at intervals. The ACE-inhibitory activity of the test compound was estimated by dose-response curve measured from the pressor responses to angiotensin I which were obtained before and after intravenous injection of the test compound.

ACE [5] = experiment: ACE-inhibitory activity in vivo, pressor response to angiotensin I, intravenous, cats; set-up: species or system cat; details: normotensive cats, 10 γ/kg intravenously, angiotensin I 600 ng/kg
Method: as §1

mice = experiment: toxicity, intravenous administration to mice; format: in vivo; details: 1000 mg/kg intravenously, 7 days after the administration
Method: Further, the toxicity of the compound (I) of the invention is remarkably low. For example, when (4S)-1-benzyl-3-{(2 S)-2-[N-((1S)-1-carboxy-3-phenylpropyl)amino]propionyl}-2-oxo-imidazolidine-4-carboxylic acid and (4S)-1-methyl-3-{(2S)-2-[N-((1S)-1-carboxy-n-nonyl)amino]propionyl}-2-oxo- imidazolidine-4-carboxylic acid were administered intravenously to mice at the dose of 1000 mg/kg, no mice died 7 days after the administration. Thus, angiotensin-dependent hypertension in mammals can be alleviated by administration of the compound (I) of the present invention or a pharmaceutically acceptable salt thereof.

## CC(C)CC[C@H](N[C@@H](C)C(=O)N1C(=O)N(Cc2ccccc2)C[C@H]1C(=O)O)C(=O)O [Example 13-(2), (4S)-1-benzyl-3-{(2S)-2-[N-((1S)-1-carboxy-4-methyl-n-pentyl)amino]propionyl}-2-oxo-imidazolidine-4-carboxylic acid]
[1]
  IC50: 3.3 nM

## C[C@H](N[C@@H](Cc1ccccc1)C(=O)O)C(=O)N1C(=O)N(Cc2ccccc2)C[C@H]1C(=O)O [Example 14-(3), (4S)-1-benzyl-3-{(2S)-2-[N-((1S)-1-carboxy-2-phenylethyl)amino]propionyl}-2-oxo-imidazolidine-4-carboxylic acid]
[1]
  IC50: 11 nM

## CC(C)C[C@H](N[C@@H](C)C(=O)N1C(=O)N(Cc2ccccc2)C[C@H]1C(=O)O)C(=O)O [Example 12-(2), (4S)-1-benzyl-3-{(2S)-2-[N-((1S)-1-carboxy-isopentyl)amino]propionyl}-2-oxo-imidazolidine-4-carboxylic acid]
[1]
  IC50: 2.1 nM

## CCOC(=O)[C@H](CCc1ccccc1)N[C@@H](C)C(=O)N1C(=O)N(C)C[C@H]1C(=O)O [Example 1, (4S)-1-methyl-3-{(2S)-2-[N-((1S)-1-ethoxycarbonyl-3-phenylpropyl)amino]propionyl}-2-oxo-imidazolidine-4-carboxylic acid]
[2]
  hypotensive activity, Blood pressure (b): measured after administration of the test compound: 136 ± 4 mm Hg
  hypotensive activity, Blood pressure (a): measured before administration of the test compound: 181 ± 3 mm Hg
[2]; 3 mg/kg
  Duration of action: more than 6 hours
[2]; listed as CH3, CH3, C6 H5 (CH2)2, C2 H5, 3 mg/kg
  Duration of action: > 6 h
[2]; spontaneously hypertensive rats
  decrease in blood pressure: about 45 mmHg
ACE [3]
  ACE-inhibitory activity (%): 60 ± 6%
ACE [3]; rats administered angiotensin I intravenously, 1.0 mg/kg
  inhibition of ACE-activity: about 60%

## CCCCCCCC[C@H](N[C@@H](C)C(=O)N1C(=O)N(C)C[C@H]1C(=O)O)C(=O)OCC [Example 3, (4S)-1-methyl-3-{(2S)-2-[N-((1S)-1-ethoxycarbonyl-n-nonyl)amino]propionyl}-2-oxo-imidazolidine-4-carboxylic acid]
[2]
  Duration of action: > 6 h
  hypotensive activity, Blood pressure (b): measured after administration of the test compound: 143 ± 4 mm Hg
  hypotensive activity, Blood pressure (a): measured before administration of the test compound: 174 ± 5 mm Hg
ACE [3]
  ACE-inhibitory activity (%): 56 ± 7%

## C[C@H](N[C@@H](CCc1ccccc1)C(=O)O)C(=O)N1C(=O)N(C)C[C@H]1C(=O)O [Example 4, (4S)-1-methyl-3-{(2S)-2-[N-((1S)-1-carboxy-3-phenylpropyl)amino]propionyl}-2-oxo-imidazolidine-4-carboxylic acid]
ACE [4]
  ACE-inhibitory activity (%): 56 ± 3%
ACE [5]
  ACE-inhibitory activity (%): 40 ± 6%

## CC[C@H](N[C@@H](CCc1ccccc1)C(=O)O)C(=O)N1C(=O)N(Cc2ccccc2)C[C@H]1C(=O)O [Example 17-(2), (4S)-1-benzyl-3-{(2S)-2-[N-((1S)-1-carboxy-3-phenylpropyl)amino]-n-butyryl}-2-oxo-imidazolidine-4-carboxylic acid]
[1]
  IC50: 2.3 nM

## CCCCCCCC[C@H](N[C@@H](CC)C(=O)N1C(=O)N(Cc2ccccc2)C[C@H]1C(=O)O)C(=O)O [Example 15-(3), (4S)-1-benzyl-3-{(2S)-2-[N-((1S)-1-carboxy-n-nonyl)amino]-n-butyryl}-2-oxo-imidazolidine-4-carboxylic acid]
[1]
  IC50: 1.4 nM

## CCCCCCCC[C@H](N[C@@H](C)C(=O)N1C(=O)N(C)C[C@H]1C(=O)O)C(=O)O [Example 5, (4S)-1-methyl-3-{(2S)-2-[N-((1S)-1-carboxy-n-nonyl)amino]propionyl}-2-oxo-imidazolidine-4-carboxylic acid]
ACE [4]
  ACE-inhibitory activity (%): 47 ± 4%
mice
  mortality (mice died): no mice died
ACE [5]
  ACE-inhibitory activity (%): 36 ± 5%

## CCCCCCCC[C@H](N[C@@H](C)C(=O)N1C(=O)N(Cc2ccccc2)C[C@H]1C(=O)O)C(=O)O [Example 9, (4S)-1-benzyl-3-{(2S)-2-[N-((1S)-1-carboxy-n-nonyl)amino]propionyl}-2-oxo-imidazolidine-4-carboxylic acid]
[1]
  IC50: 1.5 nM

## C[C@H](N[C@@H](CCc1ccccc1)C(=O)O)C(=O)N1C(=O)N(Cc2ccccc2)C[C@H]1C(=O)O [Example 8, (4S)-1-benzyl-3-{(2S)-2-[N-((1S)-1-carboxy-3-phenylpropyl)amino]propionyl}-2-oxo-imidazolidine-4-carboxylic acid]
[1]
  IC50: 1.7 nM
ACE [4]
  ACE-inhibitory activity (%): 33 ± 4%
mice
  mortality (mice died): no mice died
ACE [5]
  ACE-inhibitory activity (%): 36 ± 8%
